TGI data for 14 molecules are collected here from PubChem BioAssay (NCI).

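Growth conditions: 96-well plates. Treatment: test compound, 48 hours, 5 concentrations. Analysis: linear interpolation between bracketing concentrations; unreached endpoints set to highest concentration. Definition used: TGI = concentration required for complete inhibition of growth.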

Experiment in all cases: NCI tumour cell line growth inhibition, 48 h
Test [1] has as its system CAKI-1 renal.
Test [2] concerns DU-145 prostate.
In test [3] the test system is EKVX NSCLC.
In test [4] the test system is HCC-2998 colon.
For test [5], the system named is HS 578T breast.
Test [6] has as its system NCI-H23 lung.
The test system of test [7] is OVCAR-8 ovarian.
The test system of test [8] is PC-3 prostate.
The test system of test [9] is SN12C renal.
For test [10], the system named is SR leukemia.

Take `Cc1c([C@H](C)[C@@H]2NC[C@@H](C)C[C@H]2O)ccc2c1C[C@H]1[C@H]2CC=C2C[C@@H](O)CC[C@@]21C`: the TGI was above 100 µM in [1]; above 100 µM in test [2]; 8.53 µM in test [3]; 30 µM in [4]; 66.6 µM in [5]; 37.9 µM in test [6]. Besides, the values for the TGI in test [7], in test [8] and in test [9] were above 100 µM, 32.1 µM and 69.5 µM, respectively.

On to `O=C(OCc1ccccc1)N1CCNCCNCCN(C(=O)OCc2ccccc2)CCNCC1`, for which the TGI was 73.8 µM in [1]; above 100 µM in test [2]; 65.1 µM in test [3]; 44 µM in [5]; 32.8 µM in test [7]; above 100 µM in test [8]. For the same molecule, the TGI in [9] is above 100 µM; in [10], 34.2 µM.

In the case of `COc1cc(Oc2nc3cc(F)c(F)cc3nc2-c2ccccc2)cc(OC)c1OC`, the TGI in [1], in test [2], in test [3], in test [5], in [6] and in [7] was above 100 µM each time. Also, the TGI in [8], in test [9] and in test [10] was above 100 µM each time.

Regarding `CC(C)(C)OC(=O)c1ccc(NCC2=C(Br)C(=O)C=CC2=O)cc1`, the TGI in test [1] was 26.8 µM; in test [2], above 94.3 µM; in test [3] it was 53.9 µM; in [4] it was 48 µM; in test [5] it was 67.3 µM; in [6] it was 50.6 µM. Also, the TGI in [7] was 39.8 µM; in test [8], above 100 µM; in test [9] it was 44 µM; in [10] it was 79.7 µM.

As for `CC(=O)C(C)(C)CCC(C)(C)C(C)=O`, the TGI in test [1], in test [2], in test [3], in test [4], in [5] and in test [6] was above 100 µM each time. Also, the TGI in test [7], in [8], in test [9] and in [10] was above 100 µM each time.

On to `CC(C)(C)C1=C(Br)C(O)(C(C)(C)C)OP1(=O)c1ccccc1` (stereo not given), for which the TGI in test [1], in test [2], in test [3], in test [4], in [5] and in test [6] was above 100 µM throughout. Further, the TGI in test [7], in test [8] and in test [9] was above 100 µM each time.

For `Cc1cc(S(=O)(=O)/N=C(/NN)Nc2ccc(Cl)cc2)c(S)cc1Cl`, the TGI in test [1] stood at 54.3 µM; in test [2], 17.2 µM; in test [3], 29.3 µM; in test [4], 23.8 µM; in [5], 11.3 µM; in test [7], 27.3 µM. For the same molecule, the TGI in test [8] is above 100 µM; in [9], 75.8 µM; in test [10], above 100 µM.

With `COC1=CC(=O)N(C)C(O)C1(C#N)OC1OC(CO)C(O)C(O)C1O` (stereo not given), the TGI in test [1], in test [2], in test [3], in test [4], in [5] and in test [6] was above 100 µM throughout. Moreover, the TGI in [7], in [8], in [9] and in [10] was above 100 µM in each case.

With `O=c1[nH]nc(Cc2ccc(Cl)cc2)n1/N=C/c1ccc([N+](=O)[O-])o1`, the TGI in test [1] was above 39 µM; in test [2], above 36.7 µM; in test [3] it was 13.8 µM; in test [4] it was 4.82 µM; in test [5], 8.24 µM; in test [6] it was 16.8 µM. Besides, the TGI in test [7] was above 32.2 µM; in test [8], above 75.1 µM; in test [9], above 100 µM; in [10] it was 7.55 µM.

With `CC1CCC2(OC1)OC1C(O)C3C4CCC5CC(OC6OC(CO)C(OC7OC(CO)C(O)C(OC8OCC(O)C(O)C8O)C7OC7OC(CO)C(O)C(OC8OC(CO)C(O)C(O)C8O)C7O)C(O)C6O)C(O)CC5(C)C4CCC3(C)C1C2C` (stereo not given), the TGI in test [1] is 2.68 µM; in test [2] it was 4.63 µM; in [3] it was 9.8 µM; in test [4], 4.69 µM; in [5], 4.5 µM; in test [6], 4.41 µM. Besides, the TGI is 4.21 µM in test [7], 10.3 µM in test [8], 9.88 µM in [9] and 18.8 µM in test [10].

Regarding `O=[Se](O)O`, the TGI in test [1] was 97.1 µM; in test [2], 10.8 µM; in [3] it was 15.7 µM; in [4], above 100 µM; in [5] it was above 100 µM; in [6] it was above 94.4 µM. Also, the TGI is 8.83 µM in test [7], 7.63 µM in test [8], above 100 µM in test [9] and above 28.6 µM in test [10].

As to `Clc1cc(Cl)ncn1`, the TGI in [1], in [2], in test [4], in test [5], in [6] and in [7] was above 100 µM throughout. In addition, the TGI in test [8], in test [9] and in test [10] was above 100 µM in each case.

In the case of `NC(=S)NC/C=C/Cl`, the TGI in [1], in [2], in test [3], in [5], in [6] and in test [7] was above 100 µM each time. Also, the TGI in test [8] and in test [10] was above 100 µM throughout.

With `COc1nc(C#CC2CCCCC2)nc(OC)n1`, the TGI turned out to be 12.5 µM in [1]; 14.6 µM in test [2]; 32.6 µM in test [3]; 17.7 µM in test [5]; 8.6 µM in test [6]; 3.44 µM in [7]. In addition, the TGI is 16.3 µM in test [8], 11.1 µM in test [9] and above 100 µM in test [10].
